# Measurements as given in paper PMC10376059, “New NADPH Oxidase 2 Inhibitors Display Potent Activity against Oxidative Stress by Targeting p22^phox-p47^phox Interactions” (Antioxidants, 2023).
# Key:
# [1] = biological target: T1, NOX2 (Homo sapiens, UniProt P14598); experiment: NADPH oxidase (NOX2) inhibition, DCF fluorescence in PMA-activated neutrophil-differentiated HL-60 cells; assay type: cell-based; settings: for inhibition of NOX2-derived ROS production (in words): PMA-activated HL-60 cells, 0.05 µM to 50 µM; for IC50: neutrophil-differentiated HL-60 cells, PMA 0.8 µM, DCF fluorescence, 0.05 to 50 µM
# T1 construct: HL-60 cells expressed the components of NOX2, including gp91, p22^phox, p47^phox, and p67^phox; endogenous in cells; whole cells in A1, membrane preparations in A3 and A4
# T1 sequence (P14598 1-390): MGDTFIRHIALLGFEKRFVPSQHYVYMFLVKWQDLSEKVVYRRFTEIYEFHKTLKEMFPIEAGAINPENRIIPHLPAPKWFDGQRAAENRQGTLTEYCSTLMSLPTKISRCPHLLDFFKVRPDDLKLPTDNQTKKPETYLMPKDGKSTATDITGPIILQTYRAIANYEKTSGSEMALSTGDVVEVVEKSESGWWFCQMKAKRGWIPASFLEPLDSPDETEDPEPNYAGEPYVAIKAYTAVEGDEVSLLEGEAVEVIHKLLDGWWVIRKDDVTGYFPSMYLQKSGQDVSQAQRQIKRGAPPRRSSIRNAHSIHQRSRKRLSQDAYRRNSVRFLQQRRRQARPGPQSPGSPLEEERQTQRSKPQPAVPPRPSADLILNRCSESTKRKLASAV
# Experimental: The differentiation of HL-60 cells to neutrophils was performed after reaching a concentration of between 2 × 10^6 and 5 × 10^6 cells/mL in the differentiation medium: RPMI 1640 medium; 10% FBS; 100 IU/mL of penicillin/streptomycin; and 1.3% DMSO for 7 days, replenishing the differentiation medium every 2 days.
# The 2′,7′-dichlorofluorescein (DCF) fluorescence analysis was used to determine NADPH oxidase activity in neutrophil-differentiated HL-60 cells. The method, based on a fluorimetric assay, was adapted from Boly et al.. Briefly, 1 × 10^6 neutrophil-differentiated HL-60 cells/mL were incubated for 45 min. at 37 °C in darkness with DCF-DA (1 mg/mL). The cell suspension was then transferred to a 15 mL conical tube and centrifuged at 330× g × 10 min at 37 °C. After the supernatant was removed, the cells were re-suspended in Hanks balanced saline buffer (HBSS, Sigma-Aldrich, St. Louis, MO, USA) and transferred to dark 96-well plates with a flat glass bottom (Thermo Scientific Nunc 96 microwell® black, Optical Botton # 1.5 Cover Glass Base, Thermo Fisher Scientific). Then, 200 μL of cell suspension per well were incubated at 37 °C for 30 min with the indole heteroaryl-acrylonitriles at increasing concentrations (0.05 to 50 μM). […] Finally, PMA (0.8 μM) was added to each well for 10 min. to generate the activation of NOX2. The generation of the DCF fluorescence product was monitored in an automatic microplate reader (FLx800, BioTek Instruments, Winooski, VT, USA) at 1-min intervals at 37 °C for 1 h, using an excitation wavelength of 485 nm and an emission wavelength of 555 nm. The ability to inhibit ROS production by activated neutrophil-differentiated HL-60 cells was compared against the different controls. A control was performed with cells activated by PMA in the presence of DMSO and established as having 100% of the ROS-induced fluorescence. Inhibition control was performed in the presence of VAS2870 (20 µM) and activated by PMA. Another control (NA, not activated) was done with cells in the absence of PMA and the indole heteroaryl-acrylonitriles.
# All the experiments were performed in triplicate, using three different cell preparations, and the data were reported as mean ± s.e.m. For the determination of the IC50 of the indole heteroaryl-acrylonitriles, concentration-response curves (0.05 to 50 μM) were constructed. IC50 values were given as the mean ± standard deviation for at least three independent assays. The data were analyzed using one- and two-way ANOVA. A value of p < 0.05 was considered statistically significant. Statistical analyses were performed using the program GraphPad Prism® version 6.00, San Diego, CA, USA.
# [2] = tested on: HL-60 cells; experiment: MTT cytotoxicity assay; assay type: cell-based, human; settings: 72 h; for cytotoxicity (in words): 0.01 µM to 100 µM, MTT
# Experimental: To verify the cytotoxicity of the acrylonitrile derivatives, the MTT reduction method was performed. Briefly, HL-60 cells were seeded in a flat-bottomed 96-well plate at a density of 10,000 cells per well. […] In a second series of experiments, cells were incubated under the same conditions but for 72 h. Etoposide was used as a positive control. Ten μL of MTT was added at a final concentration of 0.5 mg/mL, incubated at 37 °C for 4 h, and then solubilized with 10% SDS in 0.1 mM HCl and incubated overnight at 37 °C. Finally, a blue-colored compound (formazan) formation was measured at 570 nm in a multiplate reader (StatFax 4200, Awareness Technology, Inc., Palm City, FL, USA). The viability percentage was obtained as follows: Viability % = [treated cells DO × 100]/[DO cells control].
# [3] = DPPH radical scavenging activity; assay type: physicochemical; settings: for antioxidant effects in the pharmacological range (in words): up to 50 μM
# Experimental: The newly synthesized compounds were evaluated for 2,2-diphenyl-1-picrylhydrazyl […] free radical scavenging activity. The reduction and stabilization of DPPH by antioxidant compounds lead to discoloration, resulting in a decrease in absorbance at 517 nm, which was expressed as a percentage of the radical solution at a given concentration of discoloration. The heteroarylacrylonitrile derivatives were re-suspended in a minimum of DMSO at a final concentration of 5 mg/mL (stock solution). From these, they were diluted to concentrations of 1000, 500, and 100 μg/mL. These solutions were mixed with a methanol solution of DPPH (20 μg/mL) for 5 min. Each compound was evaluated in triplicate; absorbance at 517 nm in a UNICAM UV/visible spectrophotometer Helios-α (Thermo Electron Corporation, Waltham, MA USA) was measured by subtracting the solvent absorbance and comparing the resulting value with that of a blank sample. The percentage of discoloration was established according to the following formula: % Radical removal or discoloration = (1 − (AM − ABM)/AC) × 100, where AM is the absorbance of the sample compound, ABM is the absorbance of the sample blank, and AC is the absorbance of the control. The degree of discoloration indicates the efficacy of the compounds studied as free radical scavengers; therefore, a percentage of discoloration of 100 indicates the maximum radical scavenging capacity and a value close to 0 indicates a zero radical scavenging capacity. Quercetin was used as a reference compound in a concentration range of 1.25 to 7.5 μg/mL.
SMILES,inhibition of NOX2-derived ROS production (in words) [1],IC50 [1] [nM],cytotoxicity (in words) [2],cytotoxicity ([2]; 1 µM (corresponding to the IC50 value)),"antioxidant capacity, DPPH discoloration (in words) [3]",antioxidant effects in the pharmacological range (in words) [3],"antioxidant capacity, DPPH discoloration ([3]; concentration range 30–300 μM) [%]"
N#C/C(=C\c1cc(-c2ccccc2)on1)C(=O)c1c[nH]c2ccccc12 [Compound C6],exhibited concentration-dependent inhibition of NOX2,1100 ± 200,non-cytotoxic,about 55%,showed antioxidant capacity only at very high concentrations,minimal,
N#C/C(=C\c1ccncc1)C(=O)c1c[nH]c2ccccc12 [Compound C14],exhibited concentration-dependent inhibition of NOX2,3600 ± 200,non-cytotoxic,,showed antioxidant capacity only at very high concentrations,minimal,12
